Reference: publication PMC9841576, “Characterisation of C101248: A novel selective THIK-1 channel inhibitor for the modulation of microglial NLRP3-inflammasome” (Neuropharmacology, 2023)

Legend:
THIK-1 [1] = target: T1, THIK-1 (Homo sapiens, UniProt Q9HB14); assay: Q-Patch automated electrophysiology, HEK-hTHIK-1 cells; type: cell-based
T1 construct: expressed in transfected cells
T1 sequence (Q9HB14 1-408): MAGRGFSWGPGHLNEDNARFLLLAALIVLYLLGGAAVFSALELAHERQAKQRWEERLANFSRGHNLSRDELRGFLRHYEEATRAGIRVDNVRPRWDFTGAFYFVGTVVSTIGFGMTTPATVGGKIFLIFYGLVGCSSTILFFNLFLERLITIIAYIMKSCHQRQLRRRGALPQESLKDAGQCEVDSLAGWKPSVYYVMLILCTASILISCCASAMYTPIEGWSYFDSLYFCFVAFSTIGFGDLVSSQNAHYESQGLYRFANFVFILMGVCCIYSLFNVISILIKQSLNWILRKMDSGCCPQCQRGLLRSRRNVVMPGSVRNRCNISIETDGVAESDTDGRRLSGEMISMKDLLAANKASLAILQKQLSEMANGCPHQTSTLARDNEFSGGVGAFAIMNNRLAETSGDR
Procedure: HEK-293 cells were transfected with human THIK-1, TREK-1, TWIK-2, or mouse THIK-1 cDNA cloned into pcDNA3.1, using either Fugene HD transfection reagent (Promega) or electroporation (MaxCyte STX instrument). Cells stably expressing the relevant genes were selected based on resistance to 500 μg/ml geneticin (Gibco). For human THIK-1 and TWIK-2 expressing cells, monoclonal lines were isolated by limited dilution cloning; mouse THIK-1 and human TREK-1 expressing cells were maintained as polyclonal pools. The HEK-293 pools and monoclones stably expressing the relevant genes were maintained in DMEM (Life Technologies), supplemented with 10% FCIII (HyClone, Fetal clone III) and 500 μg/ml geneticin. A CHO-Kv2.1 cell line was purchased from Millipore (accession NM_004975) and maintained in F12 (Life Technologies), supplemented with 10% FCSIII (Thermo Scientific) and 500 μg/ml geneticin (Life Technologies). For thallium flux assays, banks of frozen cell aliquots were prepared the day prior to assay, cells were thawed into media and seeded into PDL coated 384-well plates (Corning) at 25,000 (human/mouse THIK-1, TREK-1) or 30,000 (TWIK-2) cells/well (25 μl/well). CHO-Kv2.1 cells were seeded into non-PDL coated plates (Corning) at 5000 cells/well. […]
THIK-1 mediated currents were measured using the Q-Patch 48 automated electrophysiology platform (Sophion, Denmark). […]

THIK-1 [2] = target: T1, THIK-1; assay: Thallium flux functional wash-off assay, HEK-hTHIK-1 cells; type: cell-based
Procedure: A fluorescence-based thallium influx assay (Molecular Devices potassium assay kit) was used to monitor channel activity. In brief, component A was reconstituted in 17 ml of chloride-free assay buffer (130 mM sodium D-gluconate, 5 mM potassium D-gluconate, 2 mM calcium D-gluconate, 1 mM magnesium D-gluconate, 5 mM NaHCO3, 20 mM HEPES; pH adjusted to 7.4 with NaOH and filtered (0.45 μm filter)) and component C reconstituted in 30 μl of DMSO. Components A and C were combined, and probenecid was added (Life Technologies; final assay concentration (FAC) 4.75 mM for HEK cell lines and 2.47 mM for CHO-Kv2.1) to provide the final dye solution. Media was removed from the cell plates and replaced with dye (20 μl/well) and the plates were incubated at room temperature in the dark for 60 min. On the day of the assay, a diluted compound plate (3x FAC in 1.5% DMSO) was created. Control wells contained either DMSO vehicle (1.5%, 3x FAC) or tetrapentylammonium chloride (TPA; Sigma, 258962; 1.5 mM in 1.5% DMSO, 3x FAC). A 3x thallium stimulation plate was also prepared, to provide a FAC of either 1 mM (human THIK-1) or 3 mM (mouse THIK-1, TREK-1, TWIK-2) thallium sulphate (in assay buffer). For Kv2.1, the FAC of thallium sulphate was 2.6 mM and this was prepared in assay buffer containing potassium sulphate (Sigma P9458; FAC 23.3 mM). Following 60 min of dye loading, 10 μl from the 3x FAC compound plate was added into the cell plate, which was then incubated for 15 min at room temperature in the dark. Using a fluorescent imaging plate reader (FLIPR) tetra plate reader, 15 μl thallium stimulus solution was added to the cell plate and the fluorescence signal recorded every second for 1 min (excitation: 470–495 nm, emission: 515–575 nm).
For the functional wash-off assay, plates were tested in parallel that were run as standard (no wash) with plates that had undergone an additional assay buffer wash and incubation period following compound addition. Briefly, after a 15 min compound incubation, plates were either moved to the FLIPR for immediate thallium addition (standard) or the plates were washed with assay buffer to remove compound solutions (50 μl/well addition and removal), 30 μl/well assay buffer added and the plates incubated for 60 min, followed by thallium addition on the FLIPR (60 min wash).

For `Nc1nonc1-c1nc2ccccc2n1Cc1ccncc1` [C101248], the “maximum inhibition (Q-Patch)” value (THIK-1 [1]; HEK-hTHIK-1) was 94%, the IC50 (THIK-1 [1]; HEK-hTHIK-1, step to +40 mV, normalised to TPA, read-out: IC50, inhibition of basal currents (Q-Patch)) was 0.147 µM and the “Hill slope (nH)” value (THIK-1 [2]; 60 min wash) was 0.54. For the same molecule, the “maximum inhibition (60 min wash)” value (THIK-1 [2]; 60 min wash) was 93%, the “lower potency after 60 min wash-off compared to standard format” value (THIK-1 [2]; 60 min wash vs no wash) was 3.4 fold and the IC50 (THIK-1 [2]; compound removed, 60 min incubation in buffer before thallium, read-out: IC50 (60 min wash)) was 0.096 µM. For the same molecule, the “Hill slope (nH)” value (THIK-1 [2]; no wash) was 1.3, the “maximum inhibition (no wash)” value (THIK-1 [2]; no wash) was 101% and the IC50 (THIK-1 [2]; standard format, 15 min compound incubation, immediate thallium addition, read-out: IC50 (no wash)) was 0.028 µM.
